# Test results taken from patent US7411039B2, “GLP-2 compounds, formulations, and uses thereof” (Novo Nordisk A/S, priority 2002, dated 2008).
# Like-named read-outs stand apart in the source and are kept apart here.
# What was measured:
# [1] = test system: growth of the small intestine in mice; assay type: in vivo; details: for Small intestinal weight, Mean ± SD / Small intestinal weight/body weight, Mean ± SD: group mean
# Excerpt: Bioassay in Mice. Dose-Response Study of GLP-2 Derivatives. • Table 3. Model parameter estimates following nonlinear regression analysis of dose and small intestinal weights relative to body weight. • Table 4. Model parameter estimates following nonlinear regression analysis of dose and small intestinal weights. • Table 5. Body weight, small intestinal weight and relative small intestinal weight of mice treated with L17K(3-(tetradecanoylamino)propionyl)/K30R-[…]. • Table 6. […]. Body weight, small intestinal weight and relative small intestinal weight of mice treated with A2G-[…]. • Table 8. Body weight, small intestinal weight and relative small intestinal weight of control mice.
# The following GLP-2 derivatives and analog were tested: • 1. L17K(3-(tetradecanoylamino)propionyl)/K30R-[…]. • 2. L17K(3-(hexadecanoylamino)propionyl)/K30R-[…]. • 3. A2G-[…]. All derivatives were dissolved and diluted in buffer containing:
# Disodiumhydrogenphosphate 1.42 mg/ml, Mannitol 36.9 mg/ml, Phenol 5 mg/ml, pH 8.0.
# 189 female C57b1 mice were used in the study. All animals were divided into four groups:
# • Group 1: Controls • Group 2: L17K(3-(tetradecanoylamino)propionyl)/K30R-[…] • Group 3: L17K(3-(hexadecanoylamino)propionyl)/K30R-[…] • Group 4: A2G-[…] Dosing
# All animals received a daily subcutaneous injection of 100 pi for 10 days with the following doses:
# At Day 10 the animals were weighted before they were sacrificed. The intestine was carefully removed from each animal and the small intestine dissected, rinsed with saline and weighted.
# Body weight, small intestinal weight and small intestinal weight relative to body weight were reported for all animals and used generating the dose-response relationship. The treatment-induced increase in both absolute and relative small intestinal weight is calculated for each treatment group, since this is considered the pharmacologically relevant efficacy parameter.
# A generalised Michaelis-Menten model, with shape factor γ corresponding to the Hillslope in the semilogarithmic dose-response curve and E0 representing the background efficacy level at D=0, was used as dose-response model. Emax is the maximal effect observed and ED50 is the dose that gives an effect equal to 50% of Emax. The model was used because of the higher flexibility compared to a four parameter logistic dose-response model (1). The model was fitted to data using nonlinear regression in order to determine estimates for Emax, ED50, γ and E0.
# [formula] The goodness of fit was evaluated by visual inspection of plots showing observed data points together with fitted curves and residuals plots. Parameter estimates are presented together with CV % and 95% C.I.
# In order to account for the variability in the background efficacy level, control data were included in the nonlinear regression analysis as D=0 for all three treatment groups.
# The nonlinear regression analyses were performed using WinNonlin Professional, version 3.1, Pharsight. The nonlinear regression was performed using the Gauss-Newton (Levenberg and Hartley) algorithm.
# [2] = test system: Dextran sulfate (DS)-induced colitis; details: 350 ng or 750 ng s.c. twice daily for 9-10 days, cited from earlier work
# [3] = background efficacy level at D=0, nonlinear regression of dose-response, mice, daily s.c. for 10 days
# [4] = dose level A, 33 μg daily s.c. for 10 days
# [5] = dose level B, 16.5 μg daily s.c. for 10 days
# [6] = dose level C, 8.25 μg daily s.c. for 10 days
# [7] = dose level D, 4.125 μg daily s.c. for 10 days
# [8] = dose level E, 2.063 μg daily s.c. for 10 days
# [9] = dose level F, 1.031 μg daily s.c. for 10 days
# [10] = dose level G, 0.512 μg daily s.c. for 10 days
# [11] = nonlinear regression of dose-response
# [12] = nonlinear regression of dose-response, mice, daily s.c. for 10 days
# [13] = treatment-induced increase, secondary parameter of curve fitting
smiles,measurement,setting,value
CC[C@H](C)[C@H](NC(=O)[C@H](Cc1ccccc1)NC(=O)[C@H](CC(=O)O)NC(=O)[C@H](CCCNC(=N)N)NC(=O)[C@H](C)NC(=O)[C@H](C)NC(=O)[C@H](CC(C)C)NC(=O)[C@H](CC(N)=O)NC(=O)[C@H](CC(=O)O)NC(=O)[C@H](CC(C)C)NC(=O)[C@@H](NC(=O)[C@@H](NC(=O)[C@H](CC(N)=O)NC(=O)[C@H](CCSC)NC(=O)[C@H](CCC(=O)O)NC(=O)[C@H](CC(=O)O)NC(=O)[C@H](CO)NC(=O)[C@H](Cc1ccccc1)NC(=O)[C@H](CO)NC(=O)CNC(=O)[C@H](CC(=O)O)NC(=O)CNC(=O)[C@@H](N)Cc1c[nH]cn1)[C@@H](C)O)[C@@H](C)CC)C(=O)N[C@@H](CC(N)=O)C(=O)N[C@@H](Cc1c[nH]c2ccccc12)C(=O)N[C@@H](CC(C)C)C(=O)N[C@H](C(=O)N[C@@H](CCC(N)=O)C(=O)N[C@H](C(=O)N[C@@H](CCCCN)C(=O)N[C@H](C(=O)N[C@H](C(=O)N[C@@H](CC(=O)O)C(=O)O)[C@@H](C)O)[C@@H](C)CC)[C@@H](C)O)[C@@H](C)CC [A2G-GLP-2(1-33)],"E0, parameter estimate (CV %), small intestinal weight",[1]; [3],1.1095 (2.0) g
same,"E0, parameter estimate (CV %), small intestinal weight relative to body weight",[1]; [3],0.0425 (2.4)
same,"Small intestinal weight, Mean ± SD",[1]; [4],1.2300 ± 0.1602 g
same,"Small intestinal weight/body weight, Mean ± SD",[1]; [4],0.0501 ± 0.0057
same,"Small intestinal weight, Mean ± SD",[1]; [5],1.1775 ± 0.1337 g
same,"Small intestinal weight/body weight, Mean ± SD",[1]; [5],0.0489 ± 0.0042
same,"Small intestinal weight, Mean ± SD",[1]; [6],1.2463 ± 0.1235 g
same,"Small intestinal weight/body weight, Mean ± SD",[1]; [6],0.0484 ± 0.0052
same,"Small intestinal weight, Mean ± SD",[1]; [7],1.1713 ± 0.1687 g
same,"Small intestinal weight/body weight, Mean ± SD",[1]; [7],0.0448 ± 0.0054
same,"Small intestinal weight, Mean ± SD",[1]; [8],1.0750 ± 0.1124 g
same,"Small intestinal weight/body weight, Mean ± SD",[1]; [8],0.0443 ± 0.0027
same,"Small intestinal weight, Mean ± SD",[1]; [9],1.1688 ± 0.0923 g
same,"Small intestinal weight/body weight, Mean ± SD",[1]; [9],0.0461 ± 0.0041
same,"Small intestinal weight, Mean ± SD",[1]; [10],1.1075 ± 0.1014 g
same,"Small intestinal weight/body weight, Mean ± SD",[1]; [10],0.0436 ± 0.0036
same,"γ (shape factor, Hillslope), parameter estimate (CV %), small intestinal weight",[1]; [11],8.4169 (1869)
same,"γ (shape factor, Hillslope), parameter estimate (CV %), small intestinal weight relative to body weight",[1]; [11],0.6625 (109)
same,"Emax, parameter estimate (CV %), small intestinal weight",[1]; [12],1.2180 (2.3) g
same,"Emax, parameter estimate (CV %), small intestinal weight relative to body weight",[1]; [12],0.0548 (33.3)
same,"Emax − E0, parameter estimate (CV %), small intestinal weight",[1]; [13],0.1085 (34.8) g
same,"Emax − E0, parameter estimate (CV %), small intestinal weight relative to body weight",[1]; [13],0.0123 (151)
same,histology of colon,[2]; DS mice,"exhibited a greater proportion of intact mucosal epithelium, increased colon length, crypt depth and mucosal area"
same,body weight loss,[2]; mice receiving 5% DS in the drinking water,lost significantly less body weight
